Patent publication US20070173461A1, “Glycoside prodrug of 5-aminosalicylic acid” (Nippon Shinyaku Co., Ltd., priority 2004, published 2007)
Each block holds one compound with its values, some of them ahead of it.

Experiments:
[1] = Measurement of plasma concentration of 5-ASA (HPLC) after administration to rats; format: in vivo, rat; settings: for Plasma concentration of 5-ASA after oral administration (in words, FIG. 1): rats, p.o., 50 mg/kg as 5-ASA
Description: To SD male rats at 7 weeks of age, 5-ASA was intravenously administered as a test drug, and the compound [1], the compound [2], the compound [3] or Pentasa ™ was orally administered at a dose of 50 mg/kg as5-ASA. The plasma concentration of 5-ASA was measured by high performance liquid chromatography (HPLC). As for Pentasa (registered trademark), granules obtained by pulverizing Pentasa (registered trademark) tablet were used.

[2] = Concentration of 5-ASA in colonic tissue and rectal tissue after oral administration; format: in vivo, rat; settings: rats, p.o., 50 mg/kg as 5-ASA; FIGS. 6 and 7
Description: Further, the compound [2] and Pentasa ™ were orally administered at a dose of 50 mg/kg as 5-ASA, and the colon and the rectum were homogenated and centrifuged. Then, the concentrations of 5-ASA in the colonic tissue and the rectal tissue were measured by high performance liquid chromatography (HPLC). As for Pentasa ™, granules obtained by pulverizing Pentasa ™ tablet were used.

[3] = Amount of 5-ASA in cecal, proximal colonic, distal colonic and rectal contents after oral administration; format: in vivo, rat; settings: rats, p.o., 50 mg/kg as 5-ASA; compared with Pentasa and 5-ASA; FIGS. 2-5
Description: To SD male rats at 7 weeks of age, the compound [1], Pentasa ™ and 5-ASA were orally administered at a dose of 50 mg/kg as 5-ASA, and the contents in the cecum, the proximal colon, the distal colon and the rectum were homogenated and centrifuged. Then, the amount of 5-ASA in the respective sites of the large intestine was measured by high performance liquid chromatography (HPLC). As for Pentasa ™, granules obtained by pulverizing Pentasa ™ tablet were used.

TNBS-induced colitis = assay: Trinitrobenzenesulfonic acid (TNBS)-induced colitis in rats; format: in vivo, rat; settings: 3 days after TNBS, female SD rats
Description: To a female SD rat fasted for 24 hours, an aqueous solution of TNBS/50% ethanol (30 mg/0.25 ml/rat) was administered in the colon at 8 cm from the anus using a probe for oral administration under pentobarbital anesthesia to induce colitis. At 3 days after the administration of TNBS, the colon was excised, and the wet weight of the colon of 8 cm long from the anus was weighed. The degree of colitis onset was scored in accordance with the method of Wallace et al. (Gastroenterology 96, 29-36 (1989)). As the test compounds, Pentasa ™ at doses of 30 mg/kg and 100 mg/kg and compound [1] at doses of 61.8 mg/kg and 205.9 mg/kg (corresponding to 30 mg/kg and 100 mg/kg in terms of 5-ASA) were orally administered twice a day (on the day of TNBS administration, once at 4 hours before TNBS administration). Pentasa ™ was administered as granules obtained by pulversing Pentasa ™ tablet.

[4] = rat, in vivo; cited from earlier work

SMILES: Nc1ccc(O[C@@H]2O[C@H](CO)[C@@H](O)[C@H](O)[C@H]2O)c(C(=O)O)c1 [[3], 5-amino-2-(β-D-glucopyranosyloxy)benzoic acid]
Plasma concentration of 5-ASA after oral administration (in words, FIG. 1) [1]: remained low as compared with those of Pentasa

SMILES: C[C@@H]1C[C@H]2[C@@H]3CCC4=CC(=O)C=C[C@]4(C)[C@@]3(F)[C@@H](O)C[C@]2(C)[C@@]1(O)C(=O)COC1O[C@H](CO)[C@@H](O)[C@H](O)[C@H]1O (stereo partly drawn) [glucose derivative of dexamethasone]
Fraction delivered to the cecum [4]: 60%

SMILES: Nc1ccc(O)c(C(=O)O)c1 [Compound 5-ASA, 5-Aminosalicylic acid]
AUC ([1]; rat, iv, plasma 5-ASA, SD male rats, i.v., 1 mg/kg, read-out: Area under the curve of concentration (AUC)): 1.42 µg·h/mL

Continued, in another order:

Concentrations of 5-ASA in the colonic tissue and the rectal tissue [2]: higher as compared with Pentasa
SMILES: Nc1ccc(O[C@H]2O[C@H](CO)[C@H](O)[C@H](O)[C@H]2O)c(C(=O)O)c1 [[2], 5-amino-2-(α-D-galactopyranosyloxy)benzoic acid]
Plasma concentration of 5-ASA after oral administration (in words, FIG. 1) [1]: remained low as compared with those of Pentasa

Amount of 5-ASA in the respective sites of the large intestine (cecum, proximal colon, distal colon, rectum contents) [3]: highest value
SMILES: Nc1ccc(O[C@@H]2O[C@H](CO)[C@H](O)[C@H](O)[C@H]2O)c(C(=O)O)c1 [Compound [1], 5-amino-2-(β-D-galactopyranosyloxy)benzoic acid]
Plasma concentration of 5-ASA after oral administration (in words, FIG. 1) [1]: remained low as compared with those of Pentasa
Damage score (TNBS-induced colitis; 61.8 mg/kg (corresponding to 30 mg/kg as 5-ASA) p.o. twice a day): significantly reduced
Increase of the wet weight of the colon (TNBS-induced colitis; 205.9 mg/kg (corresponding to 100 mg/kg as 5-ASA) p.o. twice a day): inhibited the increase of the wet weight of the colon significantly
